Test results from patent US20260335279A1, “METHODS OF TREATING ISCHEMIA-REPERFUSION INJURIES” (University of Cincinnati, priority 2022, published 2026).

Assays:
[1] = test system: reactive oxygen species in myocardium; assay: DHE staining of myocardium (superoxide detection, oxidative stress) after I/R; format: in vivo, mouse (C57BL/6); settings: 30 min ischemia, 2 h reperfusion; ML264 5 min prior to reopening of coronary artery; vs I/R vehicle
Description: The myocardial ischemia/reperfusion surgical protocol was applied as follows. Mice were anesthetized with 2% isoflurane inhalation until anesthesia was achieved. The animals' body temperature was maintained at 37 °C throughout the surgical procedure using a heating pad. A tracheal tube was placed via tracheal intubation and the respiration rate was set at 150 strokes/min with a tidal volume of 200 μL, using Minivent ventilator for mice (Model 845, Harvard Apparatus). A 1.2 cm incision was made over the left chest. After retraction of the pectoral major and minor muscles, the fourth intercostal space was exposed. […] The left anterior descending coronary artery (LAD) was then located, sutured, and ligated at a site 3-4 mm distal to the origin of the artery under the left atrium using a 6-0 silk suture. The heart was allowed to stabilize for 15 min and right after, ischemia was induced by tightening the suture against a small piece of polyethylene tube. At the end of the 30-minute ischemia period, the ligature was released for the induction of reperfusion, and then the manual evacuation of air and closure of muscle and skin were performed. The mouse was then monitored during the recovery period, which was generally completed within 3 to 5 minutes. […]
Live myocardium was isolated from mice at the time of euthanasia and stained with 20 μM dihydroethidium (DHE) for 30 min at room temperature. […] Individual nuclei were measured within each visual field using ImageJ software, and visual fields were averaged to measure mean fluorescence intensity for each mouse.
In order to unravel the mechanisms of KLF5-mediated cardiotoxicity, oxidative stress levels were evaluated at early reperfusion. […] Given the fact that inflammation and diapedesis of immune cells are important hallmarks of the post-ischemia-reperfusion response, the mRNA levels of IL-1α, IL-1β, IL-6, IL-10, and TNFα in the ischemic myocardium upon ML264 treatment were evaluated at 2 hours of reperfusion (FIGS. 51-5M) and 24 hours of reperfusion (FIGS. 5N-5Q). […]

[2] = test system: myocardial ischemia-reperfusion injury in mice; assay: Infarct size evaluation upon Evans Blue/TTC staining after myocardial I/R; format: in vivo, mouse (C57BL/6); settings: ML264 25 mg/kg/12 h intraperitoneal; 30 min ischemia, 24 h reperfusion; vs vehicle
Description: The myocardial ischemia/reperfusion surgical protocol was applied as follows. Mice were anesthetized with 2% isoflurane inhalation until anesthesia was achieved. The animals' body temperature was maintained at 37 °C throughout the surgical procedure using a heating pad. A tracheal tube was placed via tracheal intubation and the respiration rate was set at 150 strokes/min with a tidal volume of 200 μL, using Minivent ventilator for mice (Model 845, Harvard Apparatus). A 1.2 cm incision was made over the left chest. After retraction of the pectoral major and minor muscles, the fourth intercostal space was exposed. […] The left anterior descending coronary artery (LAD) was then located, sutured, and ligated at a site 3-4 mm distal to the origin of the artery under the left atrium using a 6-0 silk suture. The heart was allowed to stabilize for 15 min and right after, ischemia was induced by tightening the suture against a small piece of polyethylene tube. At the end of the 30-minute ischemia period, the ligature was released for the induction of reperfusion, and then the manual evacuation of air and closure of muscle and skin were performed. The mouse was then monitored during the recovery period, which was generally completed within 3 to 5 minutes. Sustain-released buprenorphine (BupSR, 0.5 mg/kg body weight) was provided by subcutaneous injection. Mice were then left to recover until the end of the reperfusion (2 hours, 12 hours, 24 hours, or 4 weeks). The sham group underwent the same surgical procedure except that the LAD was not occluded.
Double staining of the heart with Evans Blue dye and Triphenyl-Tetrazolium Chloride (TTC) solution was employed for infarct size measurements. Mice were anesthetized upon 3% isoflurane inhalation. The thorax was cut and opened, and hearts were gently excised. Then, the aorta was cannulated and perfused with 5 mL of normal saline. The suture was re-tightened and Evans Blue solution (2.5% in WFI) was slowly infused through the aorta, to differentiate the ischemic part of the myocardium from the non-occluded, normally perfused area. The hearts were sliced into 1-2 mm sections immediately following. The heart slices were incubated with TTC solution (1% in PBS, pH=7.4) at 37 °C for 20 min. In this way, the necrotic area is delimited as a white area, while the viable tissue is stained red. […] The overall size of each slice (All/A), the area-at-risk (R), and the infarct area (I) were determined in a blinded manner for each slice using ImageJ software, and the percentages of Area at Risk (R/A) % and I/R % were calculated. […]
Administration of these two compounds was performed 5 minutes before the reopening of the coronary artery and infarct size was assessed upon 30 minutes of ischemia followed by 24 hours of reperfusion therapy.

CN(C(=O)CNC(=O)/C=C/c1cccc(Cl)c1)C1CCS(=O)(=O)CC1 [ML264]
reactive oxygen species formation (DHE staining) [1]: significant reduction | infarct size [2]: significant reduction
